pIC50: −log10 of the molar value. Active and inactive are the calls of the source. The rule behind the calls is not given here.
Tests used:
[1] = tested on: Hep 3B2; assay: Induction of apoptosis in human Hep3B cells assessed as increase in cleaved PARP level at 50 uM after 48 hrs by Western blot analysis; format: functional, cell-based
[2] = tested on: HepG2; assay: Induction of apoptosis in human HepG2 cells assessed as decrease in pro-caspase 7 level at 60 uM after 48 hrs by Western blot analysis; format: functional, cell-based
[3] = tested on: HepG2; assay: Induction of apoptosis in human HepG2 cells assessed as formation of apoptotic bodies at 60 uM after 48 hrs by AO staining-based phase contrast microscopic analysis; format: functional, cell-based
[4] = tested on: Hep 3B2; assay: Induction of apoptosis in human Hep3B cells assessed as decrease in pro-caspase 7 level at 50 uM after 48 hrs by Western blot analysis; format: functional, cell-based
[5] = tested on: Hep 3B2; assay: Cytotoxic activity against human Hep3B cells assessed as growth inhibition at 6.25 uM after 48 hrs by MTT assay; format: functional; conditions: read-out: GI
[6] = tested on: HepG2; assay: Induction of apoptosis in human HepG2 cells assessed as increase in Bax level at 60 uM after 48 hrs by Western blot analysis; format: functional, cell-based
[7] = tested on: HepG2; assay: Cytotoxic activity against human HepG2 cells assessed as growth inhibition at 6.25 uM after 48 hrs by MTT assay; format: functional; conditions: HepG2, 48 h, read-out: GI
[8] = tested on: Hep 3B2; assay: Cytotoxic activity against human Hep3B cells assessed as growth inhibition at 25 uM after 48 hrs by MTT assay; format: functional; conditions: read-out: GI
[9] = tested on: Hep 3B2; assay: Induction of apoptosis in human Hep3B cells assessed as decrease in PARP level at 50 uM after 48 hrs by Western blot analysis; format: functional, cell-based
[10] = tested on: HepG2; assay: Induction of apoptosis in human HepG2 cells assessed as decrease in Bcl-2 level at 60 uM after 48 hrs by Western blot analysis; format: functional, cell-based
[11] = tested on: HepG2; assay: Induction of apoptosis in human HepG2 cells assessed as chromatin condensation at 60 uM after 48 hrs by AO staining-based phase contrast microscopic analysis; format: functional, cell-based
[12] = tested on: HepG2; assay: Induction of apoptosis in human HepG2 cells assessed as nuclear fragmentation at 60 uM after 48 hrs by AO staining-based phase contrast microscopic analysis; format: functional, cell-based
[13] = tested on: HepG2; assay: Induction of apoptosis in human HepG2 cells assessed as increase in cleaved-caspase 9 level at 60 uM after 48 hrs by Western blot analysis; format: functional, cell-based
[14] = tested on: Hep 3B2; assay: Cytotoxic activity against human Hep3B cells assessed as growth inhibition at 50 uM after 48 hrs by MTT assay; format: functional; conditions: read-out: GI
[15] = tested on: Hep 3B2; assay: Induction of apoptosis in human Hep3B cells assessed as increase in cleaved-caspase 7 level at 50 uM after 48 hrs by Western blot analysis; format: functional, cell-based
[16] = tested on: HepG2; assay: Cytotoxic activity against human HepG2 cells assessed as growth inhibition after 48 hrs by MTT assay; format: functional, cell-based
[17] = tested on: Hep 3B2; assay: Cytotoxic activity against human Hep3B cells assessed as growth inhibition at 12.5 uM after 48 hrs by MTT assay; format: functional; conditions: read-out: GI
[18] = tested on: HepG2; assay: Induction of apoptosis in human HepG2 cells assessed as decrease in pro-caspase 9 level at 60 uM after 48 hrs by Western blot analysis; format: functional, cell-based
[19] = tested on: Hep 3B2; assay: Cytotoxic activity against human Hep3B cells assessed as growth inhibition after 48 hrs by MTT assay; format: functional, cell-based
[20] = tested on: HepG2; assay: Cytotoxic activity against human HepG2 cells assessed as growth inhibition at 100 uM after 48 hrs by MTT assay; format: functional; conditions: HepG2, 48 h, read-out: GI
[21] = tested on: HepG2; assay: Cytotoxic activity against human HepG2 cells assessed as growth inhibition at 50 uM after 48 hrs by MTT assay; format: functional; conditions: HepG2, 48 h, read-out: GI
[22] = tested on: Hep 3B2; assay: Induction of apoptosis in human Hep3B cells assessed as increase in Bax level at 50 uM after 48 hrs by Western blot analysis; format: functional, cell-based
[23] = tested on: HepG2; assay: Induction of apoptosis in human HepG2 cells assessed as decrease in PARP level at 60 uM after 48 hrs by Western blot analysis; format: functional, cell-based
[24] = tested on: HepG2; assay: Cytotoxic activity against human HepG2 cells assessed as growth inhibition at 25 uM after 48 hrs by MTT assay; format: functional; conditions: HepG2, 48 h, read-out: GI
[25] = tested on: Hep 3B2; assay: Induction of apoptosis in human Hep3B cells assessed as chromatin condensation at 50 uM after 48 hrs by AO staining-based phase contrast microscopic analysis; format: functional, cell-based
[26] = tested on: Hep 3B2; assay: Induction of apoptosis in human Hep3B cells assessed as decrease in pro-caspase 9 level at 50 uM after 48 hrs by Western blot analysis; format: functional, cell-based
[27] = tested on: Hep 3B2; assay: Induction of apoptosis in human Hep3B cells assessed as decrease in Bcl-2 level at 50 uM after 48 hrs by Western blot analysis; format: functional, cell-based
[28] = tested on: Hep 3B2; assay: Cytotoxic activity against human Hep3B cells assessed as growth inhibition at 100 uM after 48 hrs by MTT assay; format: functional; conditions: read-out: GI
[29] = tested on: HepG2; assay: Induction of apoptosis in human HepG2 cells assessed as increase in cleaved PARP level at 60 uM after 48 hrs by Western blot analysis; format: functional, cell-based
[30] = tested on: Hep 3B2; assay: Induction of apoptosis in human Hep3B cells assessed as nuclear fragmentation at 50 uM after 48 hrs by AO staining-based phase contrast microscopic analysis; format: functional, cell-based
[31] = tested on: HepG2; assay: Cytotoxic activity against human HepG2 cells assessed as growth inhibition at 12.5 uM after 48 hrs by MTT assay; format: functional; conditions: HepG2, 48 h, read-out: GI
[32] = tested on: Hep 3B2; assay: Induction of apoptosis in human Hep3B cells assessed as increase in cleaved-caspase 9 level at 50 uM after 48 hrs by Western blot analysis; format: functional, cell-based
[33] = tested on: Hep 3B2; assay: Induction of apoptosis in human Hep3B cells assessed as cell shrinkage at 50 uM after 48 hrs by AO staining-based phase contrast microscopic analysis; format: functional
[34] = tested on: HepG2; assay: Induction of apoptosis in human HepG2 cells assessed as increase in cleaved-caspase 7 level at 60 uM after 48 hrs by Western blot analysis; format: functional, cell-based

Question: Which Activity [1] does the source give for `C/C(=C\COc1ccc(/C=C/C=O)cc1)CO` here?
Answer: Active

Question: And the Activity [2]?
Answer: Active

Question: And the Activity [3]?
Answer: Active

Question: And the Activity [4]?
Answer: Active

Question: And the inhibition of growth at 6.25 µM [5]?
Answer: -4.83%

Question: And the Activity [6]?
Answer: Active

Question: And the inhibition of growth at 6.25 µM [7]?
Answer: -9.7%

Question: What about the inhibition of growth at 25 µM [8] of the same compound?
Answer: 11.6%

Question: And the Activity [9]?
Answer: Active

Question: What about the Activity [10] of the same compound?
Answer: Active

Question: And the Activity [11]?
Answer: Active

Question: And the Activity [12]?
Answer: Active

Question: What about the Activity [13] of the same compound?
Answer: Active

Question: And the inhibition of growth at 50 µM [14]?
Answer: 77.7%

Question: And the Activity [15]?
Answer: Active

Question: And the “growth inhibition (GI)” value [16]?
Answer: 87.79%

Question: And the pIC50 ([16]; Homo sapiens, HepG2, 48 h)?
Answer: 4.20

Question: What about the inhibition of growth at 12.5 µM [17] of the same compound?
Answer: 9.1%

Question: What about the Activity [18] of the same compound?
Answer: Active

Question: And the “growth inhibition (GI)” value [19]?
Answer: 93.78%

Question: And the pIC50 ([19]; Homo sapiens, Hep3B, 48 h)?
Answer: 4.33

Question: And the inhibition of growth at 100 µM [20]?
Answer: 69.2%

Question: What about the inhibition of growth at 50 µM [21] of the same compound?
Answer: 52%

Question: What about the Activity [22] of the same compound?
Answer: Active

Question: What about the Activity [23] of the same compound?
Answer: Active

Question: What about the inhibition of growth at 25 µM [24] of the same compound?
Answer: 7.01%

Question: What about the Activity [25] of the same compound?
Answer: Active

Question: What about the Activity [26] of the same compound?
Answer: Active

Question: What about the Activity [27] of the same compound?
Answer: Active

Question: What about the inhibition of growth at 100 µM [28] of the same compound?
Answer: 91.5%

Question: What about the Activity [29] of the same compound?
Answer: Active

Question: And the Activity [30]?
Answer: Active

Question: And the inhibition of growth at 12.5 µM [31]?
Answer: 12.2%

Question: What about the Activity [32] of the same compound?
Answer: Active

Question: What about the Activity [33] of the same compound?
Answer: Active

Question: And the Activity [34]?
Answer: Active

Question: How did the “growth inhibition (GI)” value [16] turn out when `COC(=O)/C=C/c1ccc(OC/C=C(\C)CO)cc1` was run?
Answer: 86.42%

Question: What about the “growth inhibition (GI)” value [19] of the same compound?
Answer: 26.16%

Question: Which results are given for `CC(/C=C\Oc1ccc(CCCO)cc1)CO` (single isomer, unassigned; (+))?
Answer: growth inhibition (GI) [16]: 13.76%; growth inhibition (GI) [19]: 69.59%

Question: Which “growth inhibition (GI)” value [16] does the source give for `CC(CO)CCOc1ccc(C=O)cc1` (centres undefined) here?
Answer: -1.05%

Question: And the “growth inhibition (GI)” value [19]?
Answer: 27.41%

Question: With `COC(=O)/C=C/c1ccc(OCCC(C)CO)cc1` (centres undefined) as the compound, how does the “growth inhibition (GI)” value [16] read?
Answer: 39.48%

Question: What about the “growth inhibition (GI)” value [19] of the same compound?
Answer: 14.7%

From ChEMBL document CHEMBL4000183, “Phenylpropanoids from Juglans mandshurica exhibit cytotoxicities on liver cancer cell lines through apoptosis induction” (Bioorg Med Chem Lett, 2017)
